Test results reported in PMC7365463, “Oxfendazole mediates macrofilaricidal efficacy against the filarial nematode Litomosoides sigmodontis in vivo and inhibits Onchocerca spec. motility in vitro” (PLoS Neglected Tropical Diseases, 2020).

What was measured:
L. loa microfilariae = test system: L. loa microfilariae; design: method as in PMID 30926803; details: L. loa mouse model; cited from earlier work
Acanthocheilonema viteae = test system: Acanthocheilonema viteae; design: method as in Nogami 1987 (Ref. 13); details: 50L3 (SC), hamster, SC 10mg/kg 5 cons. days, 12 weeks p.i, necropsy 5 weeks p.t.; ref Nogami 1987 (Ref. 13); cited from earlier work

Structure (SMILES) | Half-Life (HL), via predicted Vss/CL (human) | Half-Life (HL), dog-hum correlation (human prediction) | Half-Life (HL), rat-hum correlation (human prediction) | predicted human clearance as share of liver blood flow (human prediction) | microfilaricidal efficacy against L. loa (L. loa microfilariae) | Reduction of worm burden (Acanthocheilonema viteae)
COC(=O)Nc1nc2ccc([S+]([O-])c3ccccc3)cc2[nH]1 (stereo not drawn) [oxfendazole] | 14.4 h | 4.2 h | 12.1 h | ~ 2 % liver blood flow | lacks such a microfilaricidal efficacy | 
COC(=O)Nc1nc2cc(C(=O)c3ccc(F)cc3)ccc2[nH]1 [flubendazole] |  |  |  |  |  | 68%
